Key:
[1] = system: lever press induced by cocaine; experiment: Lever press test (cocaine self-administration); type: in vivo, mice; details: 10 mg/kg intraperitoneally 10 min prior to cocaine self-administration
Protocol: Mice were anesthetized with isoflurane (induction and maintenance at 4%-5%) for surgical implantation of a jugular vein catheter connected to a head-mounted entry port. Briefly, the right jugular vein was exposed, and the catheter tubing was inserted and secured to the vein. The catheter was passed under the skin to an incision on the head, and the port was secured to the skull with dental cement anchored by screws. Mice were given buprenorphine (0.05-0.10 mg/kg, intraperitoneal.) for analgesia and allowed to recover for 7-10 days before beginning self-administration. Catheter patency was maintained by daily infusion of 100 μl heparin (120 U/μl) through the catheter and treated with Cefazolin, 200 mg/kg, subcutaneously, to prevent bacterial infections.
The lever press test was done in extra wide mouse operant chambers with a modified top (Med Associates, VT, USA). The chamber contained a retractable lever, a food pellet receptacle connected to a pellet dispenser, with a stimulus light above the pellet receptacle, and contained a house light. Cocaine was delivered by a syringe pump located outside the chamber, and the drug delivery tubing was connected to the mice through a swivel (Instech, Plymouth Meeting, PA, USA) and the swivel arm connected on top of the chamber to allow free movement of the mice during self-administration. All the sessions were remotely operated and recorded by MED-PC V software (Med Associates, VT, USA). Mice were pre-trained with food through pressing the levers and were food-restricted during the study. After training, mice were provided ad libitum access to water and food.
Self-administration sessions took place once daily during the light-dark cycle for 14 consecutive days. Before starting the study, mice were allowed to acclimate to the housing for approximately 3 days. The availability of cocaine reward was indicated by illumination of the house light and pressing levers. […] Each infusion was paired with a cue (1 s illumination of the stimulus green light) followed by a 10-second time-out signaled by turning off the house light. […] Each chamber was operated under a 3-hour session, or until mice received 100 infusions (20 mg/kg) of cocaine (to prevent cocaine overdose). No treatment groups were implanted with a catheter and placed in the operant chambers with identical cues but not connected to the syringe pump and received no reward for pressing the active levers. Vehicle or inhibitor (Compound 2-2, Compound 2-3, or Compound 3-3) with a dosage of 10 mg/kg was injected intraperitoneally for 10 min prior to cocaine self-administration. The content of the vehicle is 0.5% DMSO, 25% PEG-300, 4% Tween-80, and 70.5% saline. Mice met criteria for acquisition of self-administration when they: (1) self-administered at least 30 infusions in a session; (2) >85% of responses were on the active […]; and (3) had no more than 20% variation in number of infusions between sessions. The lever press frequency and number within 3 hours indicate the cocaine addiction symptom.

[2] = system: cocaine conditioned place preference; experiment: Conditioned place preference (CPP) test induced by cocaine; type: in vivo, mice; details: compound 10 mg/kg 10 mins before cocaine 25 mg/kg i.p.; FIG. 12D
Source text: (§1) Conditioned place preference (CPP) is a classical conditioning paradigm used in behavioral neuroscience to study the rewarding and aversive properties of drugs or other stimuli. It involves associating a particular environment or location with the experience of a rewarding or aversive stimulus, such as drugs, food, or electric shock. In CPP experiment, mice were first trained to associate one compartment of a box and then, they were placed in the neutral compartment and allowed to freely explore both compartments, and animals' preference for one compartment over the other was measured. After vehicle/Compound 2-2 (10 mg/kg)/Compound 2-3 (10 mg/kg)/Compound 3-3 (10 mg/kg) treatment for 10 mins, the well-trained mice were administrated with cocaine (25 mg/kg, i.p.) for 30 mins. The content of the vehicle is 0.5% DMSO, 25% PEG-300, 4% Tween-80, and 70.5% saline. The locomotion activity experiment was the same as the method of open field test described in Experiment 2.

[3] = system: locomotion activity induced by cocaine; experiment: Locomotion activity (open field test) of cocaine induced mice; type: in vivo; details: compound 10 mg/kg 10 mins before cocaine 25 mg/kg i.p.; FIGS. 12A to 12C
Source text: 8 mice from Preparation Example 2 were randomly chosen to conduct Locomotion Activity I. The open fields using white acrylic chambers measured 50 cm (length)×50 cm (width)×38 cm (height) were made from white high density and non-porous plastics. Once the Video Tracking software (ANY-maze, Stoelting Co, IL, USA) was opened, the cursor was moved to the “Single-Subject Tracking” option located under the “Data Acquisition” tab and single-clicked to open this option. The software package used in this protocol allows the tracking of up to 6 individual mice at one time. The mice were brought to open fields to acclimate to the procedure room for 30 minutes (min) prior to starting the test. The tracking plot of randomly chosen 6 mice was recorded and analyzed by ANY-maze software.
as §1

SIAH1 = biological target: T1, SIAH1 (Homo sapiens, UniProt Q8IUQ4); experiment: E3-ligase auto ubiquitination assay (K48-linked polyubiquitination of HAUSP mediated by SIAH1); type: biochemical; details: 37° C., 1 hour, Western blot with Ub-K48 antibody, compared to vehicle; FIG. 14A, 14B
T1 sequence (Q8IUQ4 1-282): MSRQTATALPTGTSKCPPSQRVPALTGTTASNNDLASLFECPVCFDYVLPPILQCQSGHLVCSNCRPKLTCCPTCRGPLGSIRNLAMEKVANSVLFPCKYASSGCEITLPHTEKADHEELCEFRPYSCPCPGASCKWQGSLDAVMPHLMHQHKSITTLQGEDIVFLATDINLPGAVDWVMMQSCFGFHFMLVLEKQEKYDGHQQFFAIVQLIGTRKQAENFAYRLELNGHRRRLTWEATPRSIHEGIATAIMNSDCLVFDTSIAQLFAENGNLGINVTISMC
Protocol: SIAH1 mediates the K48-linked polyubiquitination of HAUSP. Therefore, for the ubiquitination assay, SIAH1 was incubated in the solution (0.25 mg/1 ml, total 100 μg) containing 20 mM Tris-HCl buffer (pH 8.0), 100 mM NaCl, 1 mM DTT and 40% glycerol and HAUSP (50 μg) was in 50 mM HEPES pH 7.5, 100 mM NaCl, 1 mM TCEP (tris (2-carboxyethyl) phosphine) buffer. […] The E3-ligase auto ubiquitination assay was performed by E3 Ligase Auto-Ubiquitilylation Assay Kit (Abcam, ab139469, UK).

[4] = system: HAUSP levels in SH-SY5Y cells; experiment: Western blot of HAUSP in cocaine-treated SH-SY5Y cells; details: cocaine 200 μM with inhibitor, 24 hr; for HAUSP levels decreased by cocaine in SH-SY5Y cells (western blot): FIG. 14C; for relative protein expression ratios of HAUSP normalized with β-actin: quantified with ImageJ, FIG. 14D

Row | Compound | inhibition of K48-linked polyubiquitination of HAUSP mediated by SIAH1 (SIAH1) | cumulative cocaine reinforcements ([1]; FIG. 13G) | latency to first response in mice treated with cocaine ([1]; FIG. 13H) | lever press frequencies induced by cocaine treatment ([1]; FIGS. 13A to 13F) | time spent in cocaine paired compartments (CPP test) [2] | increased locomotion activity or increased distance traveled induced by cocaine treatment [3] | HAUSP levels decreased by cocaine in SH-SY5Y cells (western blot) [4] | relative protein expression ratios of HAUSP normalized with β-actin [4]
1 | COCCNC(=O)c1ccc(Cl)cc1NC(=O)c1c(C)cc(C)cc1C [Compound 2-3, N-(5-Chloro-2-((2-methoxyethyl)carbamoyl)phenyl)-2,4,6-trimethylbenzamide] | can inhibit | decreased | increased | decreased | decreased | decreased | can restore | can restore
2 | COCCNC(=O)c1ccc(C)cc1NC(=O)c1c(C)cc(C)cc1C [Compound 5-2, N-(2-((2-Methoxyethyl)carbamoyl)-5-methylphenyl)-2,4,6-trimethylbenzamide] | can inhibit | – | – | – | – | – | can restore | can restore
3 | COCCNC(=O)c1ccc(Br)cc1NC(=O)c1c(C)cc(C)cc1C [Compound 4-2, N-(5-Bromo-2-((2-methoxyethyl)carbamoyl)phenyl)-2,4,6-trimethylbenzamide] | can inhibit | – | – | – | – | – | can restore | can restore
4 | Cc1ccccc1C(=O)OCCOC(=O)c1ccc(Cl)cc1N [Compound 1-1, 2-((2-Methylbenzoyl)oxy) ethyl 2-amino-4-chlorobenzoate] | can inhibit | – | – | – | – | – | can restore | can restore
5 | COCCNC(=O)c1ccccc1NC(=O)c1ccccc1C [Compound 3-2, N-(2-Methoxyethyl)-2-(2-methylbenzamido)benzamide] | can inhibit | – | – | – | – | – | can restore | can restore
6 | COCCNC(=O)c1ccc(Br)cc1NC(=O)c1ccccc1C [Compound 4-1, 4-Bromo-N-(2-methoxyethyl)-2-(2-methylbenzamido)benzamide] | can inhibit | – | – | – | – | – | can restore | can restore
7 | CCCOCCNC(=O)c1ccc(Cl)cc1NC(=O)c1ccccc1C [Compound 7-1, 4-Chloro-N-(2-propoxyethyl)-2-(2-methylbenzamido)benzamide] | can inhibit | – | – | – | – | – | can restore | can restore
8 | COCCNC(=O)c1ccc(Cl)cc1NC(=O)c1c(F)cccc1F [Compound 2-5, 4-Chloro-N-(2-methoxyethyl)-2-(2,6-difluorobenzamido)benzamide] | can inhibit | – | – | – | – | – | can restore | can restore
9 | CC(C)(C)C(=O)Oc1ccc(S(=O)(=O)Nc2ccccc2C(=O)NCCO)cc1 [Compound 12-1] | can inhibit | – | – | – | – | – | can restore | can restore

More lines, main results first:

Row | inhibition of K48-linked polyubiquitination of HAUSP mediated by SIAH1 (SIAH1) | Compound | cumulative cocaine reinforcements ([1]; FIG. 13G) | latency to first response in mice treated with cocaine ([1]; FIG. 13H) | lever press frequencies induced by cocaine treatment ([1]; FIGS. 13A to 13F) | time spent in cocaine paired compartments (CPP test) [2] | increased locomotion activity or increased distance traveled induced by cocaine treatment [3] | HAUSP levels decreased by cocaine in SH-SY5Y cells (western blot) [4] | relative protein expression ratios of HAUSP normalized with β-actin [4]
10 | can inhibit | COCCNC(=O)c1ccccc1NS(=O)(=O)c1ccccc1C [Compound 3-1, N-(2-Methoxyethyl)-2-((2-methylphenyl)sulfonamido)benzamide] | – | – | – | – | – | can restore | can restore
11 | can inhibit | CCOCCNC(=O)c1ccc(Cl)cc1NC(=O)c1ccccc1C [Compound 6-1, 4-Chloro-N-(2-ethoxyethyl)-2-(2-methylbenzamido)benzamide] | – | – | – | – | – | can restore | can restore
12 | can inhibit | Cc1ccccc1S(=O)(=O)Nc1ccccc1C(=O)NCCO [Compound 12-2, N-(2-hydroxyethyl)-2-(2-methylphenylsulfonamido)benzamide] | – | – | – | – | – | can restore | can restore
13 | can inhibit | COCCNC(=O)c1ccc(Cl)cc1NS(=O)(=O)c1ccccc1C [Compound 2-1, 4-Chloro-N-(2-methoxyethyl)-2-((2-methylphenyl)sulfonamido)benzamide] | – | – | – | – | – | can restore | can restore
14 | can inhibit | COCCNC(=O)c1ccc(Cl)cc1NS(=O)(=O)c1c(C)cc(C)cc1C [Compound 2-4, 4-Chloro-N-(2-methoxyethyl)-2-((2,4,6-trimethylphenyl)sulfonamido)benzamide] | – | – | – | – | – | can restore | can restore

— US20250091982A1, “Pharmaceutical Composition, Methods of Use Thereof for Treating Cocaine Addiction, and Novel Use of Hausp K444R Point Mutant Mouse” (PHARWAR BIOTECHNOLOGY, INC. PTE. LTD., priority 2022, published 2025)
